Where two headings read alike, the source gives them in different places.
Experiments:
SHR-SP isolated aorta = test: vasoactivity of SHR-SP isolated aorta (ND, HSFD and after chronic treatment); set-up: species or system rat; settings: for EC50: Rattus norvegicus
Experimental: In separate studies, endothelial function was assessed following chronic (7 week) BAY 60-4552 or GSK2181236A treatment in SHR-SP on HSFD. SHR-SP fed either normal or HSFD served as controls. Rats were anesthetized and thoracic aorta were isolated and treated with KCl and phenylephrine as described above. Cumulative concentration-response curves to phenylephrine were obtained by adding 0.5 log unit increments (1 nM to 3 μM). Following several washes with KHB, each vessel was contracted to equilibrium with 0.3 μM phenylephrine and tone was reversed by adding cumulative amounts of carbachol at 0.5 log unit intervals (10 nM to 30 μM). Following several KHB washes, the tissues were again contracted to equilibrium with 0.3 μM phenylephrine and tone was reversed by adding cumulative amounts of SNP at 0.5 log unit intervals (0.1 nM to 3 μM). In separate tissues from both the normal and HSFD SHR-SP control groups, the direct vasodilatory effects of BAY 60-4552 and GSK2181236A were investigated. Contractile tone induced by 0.3 μM phenylephrine was reversed by adding cumulative concentrations of BAY 60-4552 or GSK2181236A to the tissue baths at log increments (0.1 nM to 10 μM).

rat hearts = test system: rat hearts; set-up: method as in Krieg et al., 2009; settings: administered 5 min prior to reperfusion following 30 min regional ischemia; ref Krieg et al., 2009; cited from earlier work
rabbit hearts = test system: rabbit hearts; set-up: method as in Krieg et al., 2009; Cohen et al., 2010; settings: administered 5 min prior to reperfusion following 30 min regional ischemia; ref Krieg et al., 2009; Cohen et al., 2010; cited from earlier work
dogs = test system: dogs; set-up: method as in Korkmaz et al., 2009; settings: administered 5 min prior to reperfusion following 60 min global cardiac ischemia; ref Korkmaz et al., 2009; cited from earlier work

In the case of `CNC[C@H](O)c1cccc(O)c1` [Phenylephrine, phenylephrine], the EC50 (SHR-SP isolated aorta; aorta from HSFD SHR-SP, read-out: Phenylephrine EC50 (contraction)) is reported as 72 ± 11 nM, the EC50 (SHR-SP isolated aorta; aorta from ND SHR-SP, read-out: Phenylephrine EC50 (contraction)) is reported as 67 ± 6 nM and the “Phenylephrine Emax” value (SHR-SP isolated aorta; aorta from HSFD SHR-SP) is reported as 83 ± 10 % KCl. The “Phenylephrine Emax” value (SHR-SP isolated aorta; aorta from ND SHR-SP) was 90 ± 4 % KCl.

For `O=C(O)CCCCN(CCc1ccccc1OCc1ccc(CCc2ccccc2)cc1)Cc1ccc(C(=O)O)cc1` [BAY 58-2667], the infarct size (rat hearts) is listed as “decreased infarct size”, the infarct size (rabbit hearts) is listed as “decreased infarct size” and the cardiac function (dogs) is listed as “improved cardiac function”.

With `C[N+](C)(C)CCOC(N)=O` [Carbachol, carbachol] the EC50 (SHR-SP isolated aorta; aorta from HSFD SHR-SP, read-out: Carbachol EC50 (vasodilation)) was 260 ± 74 nM, the EC50 (SHR-SP isolated aorta; aorta from ND SHR-SP, read-out: Carbachol EC50 (vasodilation)) was 119 ± 15 nM and the “Carbachol Emax” value (SHR-SP isolated aorta; aorta from HSFD SHR-SP) was 47 ± 11 % reversal of PE tone. For the same compound, the “Carbachol Emax” value (SHR-SP isolated aorta; aorta from ND SHR-SP) was 85 ± 3 % reversal of PE tone.
